Read-outs that look alike come from different tables or passages of the source.
What was measured:
[1] = target: T1, presynaptic α2 -adrenergic receptors (Cavia porcellus, UniProt Q60474); test: Stimulation of the isolated guinea-pig atria (reduction in tachycardia)
T1 construct: Stimulation of a guinea-pig ileum; from tissue; host or cells: guinea-pig ileum longitudinal muscle strips
T1 sequence (Q60474 1-464): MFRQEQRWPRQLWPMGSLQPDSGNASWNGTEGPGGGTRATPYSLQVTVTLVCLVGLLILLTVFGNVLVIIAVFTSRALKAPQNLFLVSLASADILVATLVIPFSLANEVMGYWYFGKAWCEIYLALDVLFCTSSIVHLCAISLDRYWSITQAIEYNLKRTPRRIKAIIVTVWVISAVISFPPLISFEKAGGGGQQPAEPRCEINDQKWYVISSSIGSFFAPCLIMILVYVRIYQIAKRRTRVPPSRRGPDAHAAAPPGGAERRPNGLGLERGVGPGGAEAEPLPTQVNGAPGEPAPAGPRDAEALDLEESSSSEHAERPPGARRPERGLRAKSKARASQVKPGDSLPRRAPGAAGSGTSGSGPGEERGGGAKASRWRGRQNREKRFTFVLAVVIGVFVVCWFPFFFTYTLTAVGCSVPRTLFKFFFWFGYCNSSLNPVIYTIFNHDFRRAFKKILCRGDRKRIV
Source text: (b) Stimulation of the isolated guinea-pig atria. The release of noradrenalin at the level of the nerve endings is mediated by a feedback regulating mechanism through the presynaptic α2 -adrenergic receptors. […] Ed. D. S. DAVIES, J. L. REID, Pitman, London.
The electrical stimulation of the isolated guinea-pig atria induces a release of noradrenalin which results in an increase in the rate of the heart beat (tachycardia). This tachycardia is inhibited by an α2 -agonist such as, for example, clonidine, in a proportion which depends on the dose of the agonist used. The action of the α2 -agonist may be limited in the presence of an α2 -specific antagonist such as α-yohimbine.
The in vitro activity of the compounds of the invention on the presynaptic α2 -adrenergic receptors has been studied on the isolated guinea-pig atria, electrically stimulated according to the method described by I. C. MEDGETT et al., Naunyn-Schmiedeberg's Arch. Pharmacol. 304, (1978), 215-221. The compound to be studied is tested in increasing concentrations ranging from 10^-10 to 10^-3 mole/l. The concentration (IC30 in mole/l) which causes a 30% reduction in the maximum tachycardia obtained initially during the electrical stimulation of the atria in the absence of the compound to be tested, is determined.
On the other hand, in the presence of a concentration of 10^-6 mole/l of α-yohimbine, the concentration of compound A necessary to obtain a reduction of 30% in the tachycardia is greater than 10^-7 mole/l.

[2] = target: T1, presynaptic α2 -adrenergic receptors; test: Inhibition of the contraction of electrically stimulated guinea-pig ileum
Source text: (c) Stimulation of a guinea-pig ileum. Longitudinal muscles strips attached to an isometric strain gauge are suspended in Tyrode's solution and are stretched under a tension of 1 g (G. M. DREW. Brit. J. Pharmacol. 64, (1978), 293-300; M. ANDREJAK et al., Naunyn-Schmiedelberg's Arch. Pharmacol. 314, (1980), 83-87).
Electrical stimulation of the parasympathetic nerves associated with the ileum fragments causes a contraction of the muscle. This contraction is reduced in the presence of a presynaptic α2 -agonist and the magnitude by which the contraction is reduced depends on the concentration of the agonist used. This effect is antagonized by the simultaneous presence of an α2 -antagonist such as α-yohimbine. The compounds to be studied have been tested at increasing concentrations ranging from 10^-10 to 10^-3 mole/l.
The concentration (IC50 in mole/l) that reduces by 50% the intensity of the contraction of the muscle is determined.
In the presence of α-yohimbine at a concentration of 10^-6 mole/l, the concentration of the compounds A or B, for example, that is required for reducing muscle contraction intensity by 50% is higher, and becomes greater than 10^-6 mole/l, which gives additional confirmation that the compounds of the invention act really at the level of the presynaptic α2 -adrenergic receptors.

[3] = Diuretic activity in beagle dogs (urine excretion); type: in vivo; conditions: for Mean relative increase in urine excretion: first three hours; for minimal effective dose: Canis lupus familiaris, iv, 3 h, i.v., read-out: minimum active dose that causes a statistically significant increase of the urine excretion
Description: 4. Diuretic activity. The diuretic activity of the compounds of the invention has been determined using beagle dogs (6 males and 6 females) be means of a 6-way randomized cross-over study.
The compounds to be studied are administered intravenously at increasing doses: 2, 6.5, 20, 65 and 200 μg/kg. During the first three hours following the injection, the volume of urine excreted is measured. Table VIII gives for compound A the mean relative increase in % of the volume of urine excreted with respect to the group of animals which have not received the compound.

Cl.NC(=O)c1cccc(Cc2c[nH]cn2)c1O [A, 2-hydroxyl-3-[(1H-imidazol-4-yl)methyl]-benzamide hydrochloride]
concentration necessary to obtain a reduction of 30% in the tachycardia ([1]; in the presence of 10^-6 mole/l of α-yohimbine): greater than 10^-7 mole/l | IC30 ([1]; isolated guinea-pig atria, electrical stimulation, read-out: IC30 (30% reduction in the maximum tachycardia)): 0.9 nM | IC50 ([2]; guinea-pig ileum, electrical stimulation, read-out: IC50 (reduces by 50% the intensity of the contraction of the muscle)): 7 nM | IC50 ([2]; in the presence of 10^-6 mole/l of α-yohimbine, read-out: concentration required for reducing muscle contraction intensity by 50%): > 1000 nM | Mean relative increase in urine excretion ([3]; 2 μg/kg i.v., females, P < 0.05): 74% | Mean relative increase in urine excretion ([3]; 2 μg/kg i.v., males): 25% | Mean relative increase in urine excretion ([3]; 6.5 μg/kg i.v., females, P < 0.01): 291% | Mean relative increase in urine excretion ([3]; 6.5 μg/kg i.v., males, P < 0.05): 122% | Mean relative increase in urine excretion ([3]; 20 μg/kg i.v., females, P < 0.01): 531% | Mean relative increase in urine excretion ([3]; 20 μg/kg i.v., males, P < 0.01): 383% | Mean relative increase in urine excretion ([3]; 65 μg/kg i.v., females, P < 0.01): 804% | Mean relative increase in urine excretion ([3]; 65 μg/kg i.v., males, P < 0.01): 345% | Mean relative increase in urine excretion ([3]; 200 μg/kg i.v., females, P < 0.01): 988% | Mean relative increase in urine excretion ([3]; 200 μg/kg i.v., males, P < 0.01): 412% | minimal effective dose ([3]; females): ≤ 2 µg/kg | minimal effective dose ([3]; males): ≤ 6.5 µg/kg

— patent US4923865A, “Substituted 1-(1H-imidazol-4-yl)alkyl-benzamides as anti-ischemics and as alpha-2-adrenergic receptor agonists” (U C B Societe Anonyme, priority 1988, dated 1990)
